Results published in PubChem BioAssay AID2060333 (Molecular Pharmacology Branch, DTP, NCI, 2025).

System: 845751-090-R-J2-PDC tumor spheroid viability
Experiment: Anticancer human tumor 845751-090-R-J2-PDC patient-derived head and neck squamous carcinoma cell line growth inhibition [IpAb]
Details: spheroids with HUVEC and MSC; for IC50: curve of first compound; for viability, T/C: stronger effect = lower value
From the text: Combinatorial screen of targeted agents with ipatasertib and abemaciclib in multi-cell type tumor spheroids
A high-throughput screen of multi-cell type tumor spheroids was designed to identify active combinations of targeted small molecules and ipatasertib or abemaciclib. Complex spheroids include a stromal component modeled by human endothelial cells (HUVEC) and fibroblasts modeled by human mesenchymal stem cells (MSCs). The concentration ranges selected for each drug and investigational agent were based upon clinically achievable concentrations if the clinical Cmax of the agent was known.
Compounds. The drugs and investigational agents: ipatasertib (NSC767898), abemaciclib(NSC768073), selumetinib (NSC741078), trametinib (758246), adavosertib (NSC754352), everolimus (NSC733504), sapanisertib (NSC764658), vemurafenib (NSC761431), venetoclax (NSC766270), copanlisib (NSC809693), apelisib (NSC765974), palbociblib (NSC758247), vemurafenib (NSC761431), dabrafenib (NSC764134), ravoxertinib (NSC781343), BMS-387032 (NSC767048), sotorasib (NSC818433), talazoparib (NSC767125) and afursertib (NSC778305), were obtained from the National Cancer Institute (NCI) Developmental Therapeutics Program Chemical Repository. The FDA-approved anticancer drug set is available from the NCI Developmental Therapeutics Program. […] The stock solutions were prepared in dimethyl sulfoxide (DMSO, Sigma-Aldrich, St. Louis, MO, cat. D2650) at 800-fold the tested concentration and stored at -70 degrees C prior to their use. All drugs and investigational agents were tested over a range starting from a high concentration at or near the clinical Cmax and decreasing in half-log increments. If the clinical Cmax for an agent had not been determined, the highest concentration tested was 10 microM.
NCI60 Cell Culture. NCI60 cell lines were obtained from the NCI Developmental Therapeutics Program Tumor Repository. For each lot of cells, the Repository performed Applied Biosystems AmpFLSTR Identifiler testing with PCR amplification to confirm consistency with the published Identifier STR profile for each cell line. Cells were kept in continuous culture for no more than 20 passages. The optimal seeding densities for each of the cell lines at each time point assessed were determined prior to performing the concentration response studies. Briefly, the NCI60 human tumor lines were grown as monolayers in RPMI 1640 medium supplemented with 10% FBS and 2 mmol/L L-glutamine.
An additional 9 lines were from the NCI60 cell line panel including MDA-MB-231 breast carcinoma, MDA-MB-468 breast carcinoma, MCF7 breast carcinoma, Hs578T breast carcinoma, MALME-3M melanoma, SK-MEL-2 melanoma, SK-OV-3 ovarian carcinoma, DU-145 prostate carcinoma, PC-3 prostate carcinoma, all cell lines along with major genetic alterations are listed on Table 2. Pooled donor human umbilical vein endothelial cells (HUVEC, Lonza, cat. CC-2519) and human mesenchymal stem cells (hMSC, Lonza, cat. PT-2501) were purchased from Lonza (Walkersville, MD).
PDMR cell lines were grown in complete medium (DC medium): Dulbecco's modified Eagle's medium (DMEM)/F12 supplemented with 5% fetal bovine serum (FBS), 2 mM L-glutamine, 100 U/mL penicillin and 100 µg/ml streptomycin, 0.4 µg/ml hydrocortisone, 10 ng/ml epidermal growth factor (EGF) recombinant human protein, 24 µg/mL adenine, and 0.1 mg/mL primocin. During culture from frozen stock vials, PDMR cells were cultured in the same medium containing 10 µM Y-27632 (see Table 3). The PDCs were cultured in complete DMEM/F12 media without 10 microM Y-27632 dihydrochloride for at least two passages prior to the screen. The pooled donor HUVEC and hMSC were cultured in endothelial cell growth medium 2 (PromoCell, Heidelberg, Germany, cat. C-22011) and mesenchymal stem cell growth medium 2 (PromoCell, cat. C-28009), respectively. For all experiments, HUVEC and hMSC were used at passages </=5.
[…]
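Also: spheroids exposed to compounds for 7 days before readout.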
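For viability, T/C in this document: CTG3D luminescence normalised so that 100% = DMSO vehicle control.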

C=CCn1c(=O)c2cnc(Nc3ccc(N4CCN(C)CC4)cc3)nc2n1-c1cccc(C(C)(C)O)n1 + CC(C)NCC(C(=O)N1CCN(c2ncnc3c2C(C)CC3O)CC1)c1ccc(Cl)cc1
IC50 (second compound 0.1 µM): 54.6 nM | IC50 (second compound 0.316 µM): < 31.6 nM | IC50 (second compound 1 µM): < 31.6 nM | IC50 (second compound 3.16 µM): < 31.6 nM | IC50 (second compound 10 µM): < 31.6 nM | viability, T/C (second compound 0.1 µM, first compound 0.0316 µM): 62.1% | viability, T/C (second compound 0.1 µM, first compound 0.1 µM): 38.2% | viability, T/C (second compound 0.1 µM, first compound 0.316 µM): 22.2% | viability, T/C (second compound 0.1 µM, first compound 1 µM): 21.7% | viability, T/C (second compound 0.1 µM, first compound 3.16 µM): 35.8% | viability, T/C (second compound 0.1 µM, first compound 10 µM): 56.6% | viability, T/C (second compound 0.316 µM, first compound 0.0316 µM): 34% | viability, T/C (second compound 0.316 µM, first compound 0.1 µM): 22.1% | viability, T/C (second compound 0.316 µM, first compound 0.316 µM): 19.9% | viability, T/C (second compound 0.316 µM, first compound 1 µM): 16.9% | viability, T/C (second compound 0.316 µM, first compound 3.16 µM): 22.1% | viability, T/C (second compound 0.316 µM, first compound 10 µM): 28.4% | viability, T/C (second compound 1 µM, first compound 0.0316 µM): 24.5% | viability, T/C (second compound 1 µM, first compound 0.1 µM): 15% | viability, T/C (second compound 1 µM, first compound 0.316 µM): 11.1% | viability, T/C (second compound 1 µM, first compound 1 µM): 13.7% | viability, T/C (second compound 1 µM, first compound 3.16 µM): 22.9% | viability, T/C (second compound 1 µM, first compound 10 µM): 18.9% | viability, T/C (second compound 3.16 µM, first compound 0.0316 µM): 19.2% | viability, T/C (second compound 3.16 µM, first compound 0.1 µM): 8.76% | viability, T/C (second compound 3.16 µM, first compound 0.316 µM): 7.09% | viability, T/C (second compound 3.16 µM, first compound 1 µM): 32.9% | viability, T/C (second compound 3.16 µM, first compound 3.16 µM): 19.9% | viability, T/C (second compound 3.16 µM, first compound 10 µM): 11.9% | viability, T/C (second compound 10 µM, first compound 0.0316 µM): 6.27% | viability, T/C (second compound 10 µM, first compound 0.1 µM): 4.29% | viability, T/C (second compound 10 µM, first compound 0.316 µM): 4.36% | viability, T/C (second compound 10 µM, first compound 1 µM): 14% | viability, T/C (second compound 10 µM, first compound 3.16 µM): 13.9% | viability, T/C (second compound 10 µM, first compound 10 µM): 8.16%

Cn1cnc2c(F)c(Nc3ccc(Br)cc3Cl)c(C(=O)NOCCO)cc21 + CC(C)NCC(C(=O)N1CCN(c2ncnc3c2C(C)CC3O)CC1)c1ccc(Cl)cc1
IC50 (second compound 0.1 µM): < 9.49 nM | IC50 (second compound 0.316 µM): < 9.49 nM | IC50 (second compound 1 µM): < 9.49 nM | IC50 (second compound 3.16 µM): < 9.49 nM | IC50 (second compound 10 µM): < 9.49 nM | viability, T/C (second compound 0.1 µM, first compound 0.00949 µM): 40.2% | viability, T/C (second compound 0.1 µM, first compound 0.03 µM): 29.9% | viability, T/C (second compound 0.1 µM, first compound 0.0949 µM): 23.6% | viability, T/C (second compound 0.1 µM, first compound 0.3 µM): 20.6% | viability, T/C (second compound 0.1 µM, first compound 0.949 µM): 16.6% | viability, T/C (second compound 0.1 µM, first compound 3 µM): 12.3% | viability, T/C (second compound 0.316 µM, first compound 0.00949 µM): 17.2% | viability, T/C (second compound 0.316 µM, first compound 0.03 µM): 15.4% | viability, T/C (second compound 0.316 µM, first compound 0.0949 µM): 11.9% | viability, T/C (second compound 0.316 µM, first compound 0.3 µM): 11.2% | viability, T/C (second compound 0.316 µM, first compound 0.949 µM): 7.05% | viability, T/C (second compound 0.316 µM, first compound 3 µM): 5% | viability, T/C (second compound 1 µM, first compound 0.00949 µM): 14.4% | viability, T/C (second compound 1 µM, first compound 0.03 µM): 10.5% | viability, T/C (second compound 1 µM, first compound 0.0949 µM): 6.55% | viability, T/C (second compound 1 µM, first compound 0.3 µM): 4.68% | viability, T/C (second compound 1 µM, first compound 0.949 µM): 4.96% | viability, T/C (second compound 1 µM, first compound 3 µM): 2.43% | viability, T/C (second compound 3.16 µM, first compound 0.00949 µM): 11.3% | viability, T/C (second compound 3.16 µM, first compound 0.03 µM): 5.57% | viability, T/C (second compound 3.16 µM, first compound 0.0949 µM): 3.02% | viability, T/C (second compound 3.16 µM, first compound 0.3 µM): 3.4% | viability, T/C (second compound 3.16 µM, first compound 0.949 µM): 1.75% | viability, T/C (second compound 3.16 µM, first compound 3 µM): 1.07% | viability, T/C (second compound 10 µM, first compound 0.00949 µM): 2.67% | viability, T/C (second compound 10 µM, first compound 0.03 µM): 1.92% | viability, T/C (second compound 10 µM, first compound 0.0949 µM): 1.37% | viability, T/C (second compound 10 µM, first compound 0.3 µM): 1.13% | viability, T/C (second compound 10 µM, first compound 0.949 µM): 2.24% | viability, T/C (second compound 10 µM, first compound 3 µM): 0.56%
